No end group written: not given here.
What was measured:
J774 macrophages = experiment: Cholesterol efflux assay; type: cell-based, mouse
Experimental: The mouse macrophage-like cell line J774 (ATCC TIB-67), loaded with ^3H-cholesterol, was used for cholesterol efflux to acceptors (RG54 or ApoA-I) as previously described.
To investigate the functionality of the RG54 peptide in a physiological context, cholesterol efflux from J774 macrophages was employed. Cultured macrophages were loaded with radioactive cholesterol, then incubated for 2 or 4 h with RG54 peptide or ApoA-I at the shown concentrations, followed by quantification of the amount of effluxed ^3H-cholesterol (Fig. 1a,b). […] As most circulating ApoA-I is bound to lipids in various species of HDL, and as the RG54 peptide was shown in the lipid clearance assay to efficiently associate with lipids, we reasoned that lipidation of the RG54 peptide might improve its catalytic activity. To explore this, RG54 was first incubated with lipids as described in ESM Fig. 4d, followed by comparative analyses of the catalytic capacities in cholesterol efflux from cholesterol-loaded macrophages.
Fig. 1 Cholesterol efflux activity of RG54 compared with ApoA-I. (a, b) Concentration dependence of cholesterol efflux from ^3H-cholesterol-labelled J774 cells by lipid-free RG54 or ApoA-I was measured after 2 h (a) or 4 h (b). n=5 for both. Vmax (c) and KM (d) were calculated using the Michaelis–Menten equation. (e–g) Efflux activity of lipid-free (LF) and lipid-bound (LB) RG54 was compared after 2 h. n=3. An acyl CoA:cholesterol O-acyltransferase (ACAT) inhibitor and 8-(4-chlorophenylthio; CPT)-cAMP were used in all experiments to prevent formation of cholesteryl esters of ^3H-cholesterol and to induce expression of ABCA1, respectively. Values are means ± SEM. **p≤0.01, ***p≤0.001

[1] = DMPC MLV lipid clearance (lipid binding); settings: compared with ApoA-I; 30 nmol/l DMPC, 1:100 molar ratio, 25°C, absorbance at 325 nm; n=5
Experimental: Turbid MLV solutions at 30 nmol/l DMPC were combined with PBS, RG54 or ApoA-I at a 1:100 molar ratio, and lipid binding at 25°C was measured by absorbance at 325 nm at the indicated times. Readings were fitted to one-way decay of non-linear regression.
Quantitative and qualitative lipid assays were applied to determine the lipid-binding properties of RG54. Solubilisation of MLVs made from DMPC phospholipids by RG54 peptide, or by recombinant ApoA-I protein as control, was assayed by light scattering (ESM Fig. 4a).
ESM Figure 4. Lipid clearance and peptide-lipid complex formation activity of RG54 compared with full-length ApoA-I.
DMPC clearance activity of RG54 was compared with ApoA-I. Turbid solutions of DMPC MLVs (30 nmol/l) were prepared in PBS as described in Methods and combined with PBS, RG54, or ApoA-I at a 1:100 molar ratio then lipid binding at 25°C was measured by absorbance at 325 nm at indicated times. (a) Readings were fitted to one-way decay of non-linear regression. (b) The lipid clearance rate is described as t1/2 values calculated from panel a, means ± SEM, n=5, *** p ≤ 0.001. Further, rHDL particles were prepared by incubating the MLVs with proteins or peptides in the molar ratios noted at 24°C for four days. Particle size distribution was analysed by DLS and frequency curves generated for ApoA-I (c) or RG54 (d). […]

C2C12 myotubes = experiment: Glucose uptake in muscle myotubes; type: cell-based, rat; settings: different concentrations of RG54; three independent experiments
Experimental: C2C12 myoblasts were differentiated to myotubes by switching from growth media to 2% FBS DMEM for 7 days, with the addition of cytosine arabinoside (Sigma, Stockholm, Sweden) from day 3 to 5 to eliminate proliferating cells. Prior to stimulation, cells starved for 2 h in serum-free DMEM were treated as described and glucose uptake measurements were carried out. See ESM Methods for more details.
Fig. 3 RG54 induces skeletal muscle glucose uptake and primes INS-1E cells to increase GSIS. (a) C2C12 skeletal muscle myotubes were incubated in the absence or presence of different concentrations of RG54 or with insulin, followed by glucose uptake measurements. Values are means ± SEM from three independent experiments. *p≤0.05, **p≤0.01, ***p≤0.001 vs control. (b) INS-1E cells were incubated for 2 h in the absence or presence of different concentrations of RG54 in a low-glucose environment (preincubation). Buffer was replaced with one containing low (3.3 mmol/l) or high (20 mmol/l) glucose but no RG54 peptide. Insulin secretion was measured after 1 h glucose challenge. […]
No statistical methods were used to predetermine sample sizes, but sample sizes are similar to those reported in the field. […] Group allocation was blinded for all mouse work when possible (such as collection of blood or tissues, sample quantification and analysis, and atherosclerosis scoring). […]

Ac-AEYHAKATEHLSTLSEKAKPALEDLRQGLLPVLESFKVSFLSALEEYTKKLNTQ [RG54]
Vmax of cholesterol efflux, lipid-bound vs lipid-free (J774 macrophages; RG54 first incubated with lipids (DMPC), 2 h, n=3): twofold increase
Vmax of cholesterol efflux (J774 macrophages; lipid-free RG54 compared with ApoA-I, Michaelis-Menten, n=5): significantly lower
cholesterol efflux (J774 macrophages; lipid-free, 3H-cholesterol-loaded J774, 2 or 4 h, ACAT inhibitor and CPT-cAMP, n=5): dose-dependent manner
initial rate of phospholipid binding [1]: significantly lower
glucose uptake (C2C12 myotubes): dose-dependent stimulation
